# In PubChem BioAssay AID200 (DTP/NCI, 2004):
# Values joined by “and” are separate entries in the source; they are usually repeats but may differ in a detail not shown here. Equal entries are not always repeated. Toxic doses and inconclusive results are not listed. Where a SMILES comes first, the peptide text is derived from it. The star is where a group is joined. Cbz = O=C(OCc1ccccc1)*
# System: B6C3F1 mice, B16 melanoma ip, median survival T/C
# Experiment: NCI In Vivo Anticancer Drug Screen. Data for tumor model B16 Melanoma (intraperitoneal) in B6C3F1 mice
# Details: endpoint: median survival time, schedule: Q01DX009 (ip), higher = longer survival
# Method: The antitumor activity of compounds was measured in mice bearing transplantable tumors. Survival or tumor size were measured and the results are expressed as the measurement made in the treated group (T) divided by the measurement made in the vehicle treated control group (C). The tumor model used in this assay is B16 Melanoma (intraperitoneal) in B6C3F1 mice
# [1] = dose: 100.0 mg/kg/injection, vehicle: Klucel (hydroxypropylcellulose) (HPC)
# [2] = dose: 200.0 mg/kg/injection, vehicle: Klucel (hydroxypropylcellulose) (HPC)
# [3] = dose: 400.0 mg/kg/injection, vehicle: Klucel (hydroxypropylcellulose) (HPC)
# [4] = dose: 50.0 mg/kg/injection, vehicle: saline with Tween-80
# [5] = dose: 100.0 mg/kg/injection, vehicle: saline with Tween-80
# [6] = dose: 200.0 mg/kg/injection, vehicle: saline with Tween-80
# [7] = dose: 12.5 mg/kg/injection, vehicle: saline with Tween-80
# [8] = dose: 25.0 mg/kg/injection, vehicle: saline with Tween-80
smiles,measurement,setting,value
CSc1ncc2ncn(C3OC(CO)C(O)C3O)c2n1 (centres undefined),T/C,"dose: 25.0 mg/kg/injection, vehicle: Klucel (hydroxypropylcellulose) (HPC)",101 % of control and 105 % of control
same,T/C,"dose: 50.0 mg/kg/injection, vehicle: Klucel (hydroxypropylcellulose) (HPC)",95 % of control and 98 % of control
same,T/C,[1],103 % of control
same,T/C,[2],106 % of control
same,T/C,[3],110 % of control and 89 % of control
CCOC(=O)c1c(C)c(C(=O)OCC)n(CC)c1C=O,T/C,[4],86 % of control
same,T/C,[5],89 % of control
same,T/C,[6],93 % of control
CCCCCCCCCCNCCS,T/C,"dose: 5.0 mg/kg/injection, vehicle: Klucel (hydroxypropylcellulose) (HPC)",88 % of control
same,T/C,"dose: 10.0 mg/kg/injection, vehicle: Klucel (hydroxypropylcellulose) (HPC)",99 % of control
same,T/C,"dose: 20.0 mg/kg/injection, vehicle: Klucel (hydroxypropylcellulose) (HPC)",104 % of control
CC(C)(O)/C=C/C(=O)[C@](C)(O)[C@H]1[C@H](O)C[C@@]2(C)[C@@H]3CC=C4[C@@H](C[C@H](O)C(=O)C4(C)C)[C@]3(C)C(=O)C[C@]12C,T/C,"dose: 0.5 mg/kg/injection, vehicle: saline + Tween-80 + alcohol",102 % of control
same,T/C,"dose: 1.0 mg/kg/injection, vehicle: saline + Tween-80 + alcohol",98 % of control
N#Cc1nc(C#N)c(Sc2ccccc2)c(Sc2ccccc2)c1Sc1ccccc1,T/C,"dose: 3.12 mg/kg/injection, vehicle: saline with Tween-80",104 % of control
same,T/C,"dose: 3.13 mg/kg/injection, vehicle: saline with Tween-80",101 % of control
same,T/C,"dose: 6.25 mg/kg/injection, vehicle: saline with Tween-80",98 % of control and 102 % of control
same,T/C,[7],93 % of control and 94 % of control
same,T/C,[8],101 % of control
same,T/C,[4],97 % of control and 98 % of control
same,T/C,[5],101 % of control and 104 % of control
CC(C)C(NC(=O)C(Cc1cnc[nH]1)NC(=O)OCc1ccccc1)C(=O)O (stereo not drawn) (Cbz-His-Val-OH; configuration not given here),T/C,[1],94 % of control
same,T/C,[2],102 % of control
same,T/C,[3],102 % of control
C[PH+](C)C.C[PH+](C)C.[Au],T/C,"dose: 0.31 mg/kg/injection, vehicle: Klucel (hydroxypropylcellulose) (HPC)",115 % of control
same,T/C,"dose: 0.62 mg/kg/injection, vehicle: Klucel (hydroxypropylcellulose) (HPC)",117 % of control
same,T/C,"dose: 1.25 mg/kg/injection, vehicle: Klucel (hydroxypropylcellulose) (HPC)",114 % of control
same,T/C,"dose: 2.5 mg/kg/injection, vehicle: Klucel (hydroxypropylcellulose) (HPC)",112 % of control
Nc1ncnc2c1ncn2C1C=C(CO)C(O)C1O (centres undefined),T/C,"dose: 0.5 mg/kg/injection, vehicle: saline",97 % of control and 106 % of control
same,T/C,"dose: 1.0 mg/kg/injection, vehicle: saline",99 % of control and 103 % of control
same,T/C,"dose: 2.0 mg/kg/injection, vehicle: saline",102 % of control and 103 % of control
same,T/C,"dose: 4.0 mg/kg/injection, vehicle: saline",110 % of control and 105 % of control
[Cl][Pt+2][Cl].[NH-]c1ccc(Cl)cc1[NH-],T/C,"dose: 2.5 mg/kg/injection, vehicle: saline with Tween-80",116 % of control
same,T/C,"dose: 20.0 mg/kg/injection, vehicle: saline with Tween-80",168 % of control
O=C(N/N=C/c1cccc(O)c1O)N/N=C/c1cccc(O)c1O,T/C,[7],118 % of control
same,T/C,[8],112 % of control
same,T/C,[4],116 % of control
same,T/C,[5],106 % of control
same,T/C,[6],106 % of control
CC(C)(C)N(C(=O)OCC1c2ccccc2-c2ccccc21)C(CO)C(=O)O (centres undefined),T/C,[1],96 % of control
